The results in this text go back to patent US20240238268A1, “TREATMENTS AND METHODS FOR TREATING ALZHEIMER'S DISEASE” (Board of Supervisors of Louisiana State University and …, priority 2021, published 2024).

Common to all, as to assay type: in vivo, mouse
One assay relates to C57 mice. Briefly: Neurovascular coupling: microvessel diameter, two-photon laser scanning microscopy, C57 mice. The following applies: 10 mg/kg, 7 days, IP.
The next assay concerns ZO-1. Briefly: ZO-1 tight junction protein level in brain, capillary-based immunoassay. The following applies: C57 mice; 10 mg/kg, IP, 7 days. As for the experimental part:
(§1) FIGS. 16A-16G show NOTCH1 inhibition (via crenigacestat) decreased ZO-1 and occluding and AAV knockdown of PRMT4 enhanced ZO-1 and occludin. […] C57 female mice. FIGS. 16B and 16C show crenigacestat (10 mg/kg, IP, 7 days) reduced NOTCH1 (110 kDa) protein level in the cortex and hippocampus of aged C57 female mice. AAV knockdown of PRMT4 increased NOTCH1 protein level. FIGS. 16D-16G show ZO-1 (220 kDa), and occludin (60 kDa) tight junctional proteins were decreased in the cortex and hippocampus in presence of NOTCH1 inhibitor in C57. PRMT4-AAV increased the expression of ZO-1 and occludin in aged 3xTg-AD female mice. Protein level was measured by capillary-based immunoassay and normalized to total protein. * p<0.05 compared to C57, #p<0.05 compared to 3xTg-AD, $p<0.05 compared to 3xTg-AD+AAV as evaluated by one-way ANOVA with Tukey's post-hoc analyses.
(§2) Capillary-phoresis immunoassay via ProteinSimple®: Quantification of all protein targets was achieved using Simple Western analysis in a Jess™ apparatus per the manufacturer's protocol (ProteinSimple, Bio-techne, Minneapolis, MN). […] Following homogenization and centrifugation (10,000×g, 5 min, 4° C.), protein concentration was determined in tissue protein supernatant samples using DC Protein Assay (Cat. No. 5000112, Bio-Rad Laboratories, Hercules, California) according to manufacturer instructions. […]

Another assay has as its system NOTCH1. Briefly: NOTCH1 protein level in brain, capillary-based immunoassay. The following applies: aged C57 female mice; 10 mg/kg, IP, 7 days. Here is the method:
NOTCH1 protein level in cortex, FIG. 13A, and hippocampus, FIG. 13B, was decreased in aged 3xTg-AD female mice v. male counterparts. Treatment with specific PRMT4 specific inhibitor (TP-064, 30 mg/kg, 7 days, IP) or AAV knockdown of PRMT4 enhanced NOTCH1 protein level in cortex, […], and hippocampus, […], in aged 3xTg-AD female mice. Relative NOTCH1 protein (˜110 kDa) level was measured by capillary-based immunoassay and normalized to total protein. * p<0.05 v. control male mice evaluated by unpaired t-test in FIGS. 13A and 13B. * p<0.05 compared to C57, #p<0.05 compared to 3xTg-AD+TP-064, $p<0.05 compared to 3xTg-AD+AAV, evaluated by one-way ANOVA with Tukey's post-hoc analyses in FIGS. 13C and 13D.
as §1
Capillary-phoresis immunoassay via ProteinSimple®: Quantification of all protein targets was achieved using Simple Western analysis in a Jess™ apparatus per the manufacturer's protocol (ProteinSimple, Bio-techne, Minneapolis, MN). […] Following homogenization and centrifugation (10,000×g, 5 min, 4° C.), protein concentration was determined in tissue protein supernatant samples using DC Protein Assay (Cat. No. 5000112, Bio-Rad Laboratories, Hercules, California) according to manufacturer instructions. […] Antibody diluent (ProteinSimple, Bio-techne, Minneapolis, MN) was used for all antibody dilutions as follows: PRMT4 (1:50, RRID: AB_2068436), PRMT6 (1:100, Cell Signaling Technology cat. 14641), eNOS (1:200, RRID: AB_10850618), nNOS (1:100, RRID: AB_2152488), iNOS (1:100, RRID: AB_10000625), DDAH2 (1:50, RRID: AB_2640442) Antibodies were detected using HRP-conjugated secondary anti-rabbit, and -mouse. Relative protein levels were calculated by measuring the area under the peak of a chemiluminescent chromatogram and normalized to total capillary chemiluminescence for a given sample. […]

The subject of a further assay is occludin. Kind of assay: Occludin tight junction protein level in brain, capillary-based immunoassay. Conditions: C57 mice; 10 mg/kg, IP, 7 days. As for the experimental part: as §1, §2

For the compound `C[C@H](NC(=O)CCC(F)(F)F)C(=O)N[C@@H]1C(=O)N(CCO)c2ncccc2-c2ccccc21` [Crenigacestat], the microvessel diameter result in the assay with C57 mice is on record as “decrease”. For the same compound, in the assay on ZO-1, the “ZO-1 protein level in cortex” value is on record as “decreased” and the “ZO-1 protein level in hippocampus” value was “decreased”. Moreover, in the assay with NOTCH1, the “NOTCH1 protein level in cortex” value was “reduced” and the “NOTCH1 protein level in hippocampus” value is “reduced”. Further, in the assay with occludin, the “occludin protein level in cortex” value is reported as “decreased” and the “occludin protein level in hippocampus” value is on record as “decreased”.
